Measurements published in ChEMBL document CHEMBL2375222, “Synthesis of 1H-1,2,3-triazole linked β-lactam-isatin bi-functional hybrids and preliminary analysis of in vitro activity against the protozoal parasite Trichomonas vaginalis” (Eur J Med Chem, 2013).

Tests used:
[1] = tested on: Trichomonas vaginalis; experiment: […] activity against Trichomonas vaginalis G3 at 100 uM after 24 hrs by hemocytometry; format: functional; conditions: G3, 24 h
[2] = tested on: CHO-K1; experiment: Cytotoxicity against CHOK1 cells assessed as change in cell morphology at 100 uM by light microscopy; format: cell-based, Cricetulus griseus; conditions: chinese hamster, cho-k1, 100 µM
[3] = tested on: Trichomonas vaginalis; experiment: […] activity against Trichomonas vaginalis G3 at 10 uM after 24 hrs by hemocytometry; format: functional; conditions: G3, 24 h
[4] = tested on: Trichomonas vaginalis; experiment: […] activity against Trichomonas vaginalis G3 after 24 hrs by hemocytometry; format: functional; conditions: G3, 24 h
[5] = tested on: CHO-K1; experiment: Cytotoxicity against CHOK1 cells assessed as change in cell morphology by light microscopy; format: cell-based; conditions: Cricetulus griseus

SMILES	inhibition at 100 µM [1] [%]	Activity [2]	inhibition at 10 µM [3] [%]	IC50 [4] [µM]	IC50 [5] [µM]
O=C1C(=O)N(Cc2cn([C@@H]3C(=O)N(c4ccc(F)cc4)[C@@H]3/C=C/c3ccccc3)nn2)c2ccc(F)cc21 (relative stereo)	100	Toxic	19.5	–	–
O=C1C(=O)N(Cc2cn([C@@H]3C(=O)N(Cc4ccccc4)[C@@H]3/C=C/c3ccccc3)nn2)c2ccccc21 (relative stereo)	100	Toxic	7.8	8.68	–
O=C1C(=O)N(Cc2cn([C@@H]3C(=O)N(Cc4ccccc4)[C@@H]3/C=C/c3ccccc3)nn2)c2ccc(F)cc21 (relative stereo)	19.6	Toxic	0	–	–
O=C1C(=O)N(Cc2cn([C@@H]3C(=O)N(c4ccccc4)[C@@H]3/C=C/c3ccccc3)nn2)c2ccc(Cl)cc21 (relative stereo)	100	Toxic	61	9.82	–
O=C1C(=O)N(Cc2cn([C@@H]3C(=O)N(c4ccccc4)[C@@H]3/C=C/c3ccccc3)nn2)c2ccc(Br)cc21 (relative stereo)	100	Toxic	83	9.34	–
O=C1C(=O)N(Cc2cn([C@@H]3C(=O)N(C4CCCCC4)[C@@H]3/C=C/c3ccccc3)nn2)c2ccc(Cl)cc21 (relative stereo)	100	Toxic	7.3	–	–
O=C1C(=O)N(Cc2cn([C@@H]3C(=O)N(c4ccc(Cl)cc4)[C@@H]3/C=C/c3ccccc3)nn2)c2ccccc21 (relative stereo)	100	Toxic	80.5	8.27	–
Cc1ccc(N2C(=O)[C@@H](n3cc(CN4C(=O)C(=O)c5cc(F)ccc54)nn3)[C@H]2/C=C/c2ccccc2)cc1 (relative stereo)	100	Toxic	58.5	22.1	–
O=C1C(=O)N(Cc2cn([C@@H]3C(=O)N(C4CCCCC4)[C@@H]3/C=C/c3ccccc3)nn2)c2ccc(Br)cc21 (relative stereo)	100	Toxic	4.9	–	–
O=C1C(=O)N(Cc2cn([C@@H]3C(=O)N(C4CCCCC4)[C@@H]3/C=C/c3ccccc3)nn2)c2ccccc21	100	Toxic	26.8	–	–
O=C1C(=O)N(Cc2cn([C@@H]3C(=O)N(Cc4ccccc4)[C@@H]3/C=C/c3ccccc3)nn2)c2ccc(Cl)cc21 (relative stereo)	67.4	Toxic	7.3	–	–
O=C1C(=O)N(Cc2cn([C@@H]3C(=O)N(c4ccccc4)[C@@H]3/C=C/c3ccccc3)nn2)c2ccc(F)cc21 (relative stereo)	100	Toxic	58.5	7.06	–
Cc1ccc(N2C(=O)[C@@H](n3cc(CN4C(=O)C(=O)c5ccccc54)nn3)[C@H]2/C=C/c2ccccc2)cc1	100	Toxic	4.9	27.5	–
O=C1C(=O)N(Cc2cn([C@@H]3C(=O)N(c4ccc(Cl)cc4)[C@@H]3/C=C/c3ccccc3)nn2)c2ccc(Cl)cc21 (relative stereo)	100	Toxic	53.7	9.94	–
Cc1ccc2c(c1)C(=O)C(=O)N2Cc1cn([C@@H]2C(=O)N(c3ccccc3)[C@@H]2/C=C/c2ccccc2)nn1	82.6	Toxic	0	–	–
O=C1C(=O)N(Cc2cn([C@@H]3C(=O)N(c4ccc(F)cc4)[C@@H]3/C=C/c3ccccc3)nn2)c2ccc(Br)cc21 (relative stereo)	100	Toxic	0	–	–
O=C1C(=O)N(Cc2cn([C@@H]3C(=O)N(c4ccc(F)cc4)[C@@H]3/C=C/c3ccccc3)nn2)c2ccc(Cl)cc21 (relative stereo)	100	Toxic	14.6	–	–
Cc1ccc(N2C(=O)[C@@H](n3cc(CN4C(=O)C(=O)c5cc(Cl)ccc54)nn3)[C@H]2/C=C/c2ccccc2)cc1 (relative stereo)	100	Toxic	48.8	10.1	–
O=C1C(=O)N(Cc2cn([C@@H]3C(=O)N(c4ccc(F)cc4)[C@@H]3/C=C/c3ccccc3)nn2)c2ccccc21 (relative stereo)	100	–	38.5	7.69	7.69
O=C1C(=O)N(Cc2cn([C@@H]3C(=O)N(C4CCCCC4)[C@@H]3/C=C/c3ccccc3)nn2)c2ccc(F)cc21 (relative stereo)	100	Toxic	0	–	–
O=C1C(=O)N(Cc2cn([C@@H]3C(=O)N(c4ccccc4)[C@@H]3/C=C/c3ccccc3)nn2)c2ccccc21 (relative stereo)	100	Toxic	100	–	–
Cc1ccc2c(c1)C(=O)C(=O)N2Cc1cn([C@@H]2C(=O)N(C3CCCCC3)[C@@H]2/C=C/c2ccccc2)nn1 (relative stereo)	95.7	Toxic	9.8	44.5	–
